Among the test systems are SR leukemia; HL-60(TB) leukemia; EKVX NSCLC; 786-0 renal; T-47D breast; U251 CNS; CAKI-1 renal; KM12 colon; SNB-75 CNS; ACHN renal.
What all share (experiment): inhibition of tumour cell growth, NCI panel, 48 h

“And” between values parts separate entries of the source, which are not always exact repeats. Equal entries are not always repeated.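 Exposure lasted 48 hours, with cells grown in 96-well plates and compounds tested at five concentrations. GI50 is the concentration that inhibits growth by half. At the TGI there is no net growth.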

For `COc1ccc(/C(COc2ccc3c(=O)cc(-c4ccccc4)oc3c2)=N\O)cc1`, the GI50 in the test with SR leukemia is 6.61 µM; in the test with HL-60(TB) leukemia, over 14 µM; in the test with EKVX NSCLC, 2.05 µM; in the test with 786-0 renal, 17.2 µM; with T-47D breast, 21.7 µM; with U251 CNS, 14.8 µM. Further, the GI50 was 1.83 µM in the test on CAKI-1 renal, 12.5 µM in the test on KM12 colon, over 31.8 µM in the test on SNB-75 CNS and 9.5 µM in the test with ACHN renal. In addition, the TGI in the test with SR leukemia was over 32 µM; in the test with HL-60(TB) leukemia, over 50 µM; with EKVX NSCLC, over 18 µM; in the test on 786-0 renal, over 50 µM; in the test on T-47D breast it was over 45.8 µM; in the test on U251 CNS it was over 50 µM. Further, the TGI with CAKI-1 renal is 28.4 µM; in the test with KM12 colon, over 42.6 µM; with SNB-75 CNS it was over 45.9 µM; in the test with ACHN renal, 19 µM.

Take `CC1CCC(NC(=O)N(CCCl)N=O)CC1` (stereo not given): the GI50 in the test on SR leukemia is 0.832 µM; in the test on HL-60(TB) leukemia, 8.98 µM; in the test on 786-0 renal, 13.9 µM; in the test with U251 CNS, 20.8 µM; in the test with CAKI-1 renal it was 18.9 µM; in the test with KM12 colon, 36.6 µM. Also, the GI50 with SNB-75 CNS was 27.3 µM; with ACHN renal, 31.6 µM. The TGI with HL-60(TB) leukemia is 24.1 µM and 72.2 µM; in the test with EKVX NSCLC, 119 µM; with 786-0 renal it was 32.4 µM and 64.2 µM; with T-47D breast, 88.1 µM; with U251 CNS it was 65.9 µM; with CAKI-1 renal, 37.5 µM and 53.2 µM. Besides, the TGI in the test with KM12 colon was 112 µM; in the test with SNB-75 CNS, 74.4 µM and 66.7 µM; in the test with ACHN renal it was 91.7 µM and 103 µM.

Consider `COc1ccc(-c2cc(=O)[nH]c3c(OC)c4ccccc4c(OC)c23)cc1`, for which the GI50 in the test with SR leukemia is 0.431 µM; in the test with HL-60(TB) leukemia it was 0.276 µM; in the test with EKVX NSCLC, 2.87 µM; with 786-0 renal, 0.532 µM; with T-47D breast, 0.356 µM; in the test on U251 CNS, 0.419 µM. The GI50 is 0.376 µM in the test with CAKI-1 renal, 0.323 µM in the test on KM12 colon, 0.246 µM in the test with SNB-75 CNS and 0.663 µM in the test with ACHN renal. Moreover, the TGI with SR leukemia, in the test with EKVX NSCLC, with 786-0 renal, with T-47D breast, in the test on U251 CNS and in the test on CAKI-1 renal was over 100 µM throughout. In addition, the values for the TGI with KM12 colon, in the test with SNB-75 CNS and in the test with ACHN renal were over 100 µM, 1.68 µM and over 100 µM, respectively.

As for `COc1cc(C[C@H]2c3cc(OC)c(OC)cc3CCN2C)c(Oc2cc3c(cc2OC)-c2c(OC)c(OC)cc4c2[C@H](C3)N(C)CC4)cc1OC`, the GI50 with SR leukemia was 2.44 µM; in the test on HL-60(TB) leukemia, 5.71 µM; with EKVX NSCLC, 17.6 µM; with 786-0 renal it was 8.97 µM; with U251 CNS it was 10.7 µM; in the test on CAKI-1 renal, 16.1 µM. Besides, the GI50 in the test on KM12 colon is 13.3 µM; with SNB-75 CNS, 9.19 µM; in the test with ACHN renal, 14.5 µM. The TGI was 28.6 µM and 7.84 µM in the test with SR leukemia; 13.9 µM and 19.4 µM with HL-60(TB) leukemia; 34.6 µM and 32.7 µM in the test on EKVX NSCLC; 14.1 µM and 21.9 µM in the test on 786-0 renal; 23.4 µM in the test with T-47D breast; 8.95 µM and 22.7 µM in the test on U251 CNS. Moreover, the TGI in the test on CAKI-1 renal is 23.9 µM and 42.6 µM; in the test with KM12 colon, 20.4 µM and 26.7 µM; in the test on SNB-75 CNS, 15.3 µM and 24.3 µM; with ACHN renal it was 30 µM and 27.5 µM.

Take `N#CC(NC12CC3CC(CC(C3)C1)C2)c1ccc2c(c1)OCO2` (stereo not given): the TGI with SR leukemia, in the test with HL-60(TB) leukemia, in the test on EKVX NSCLC, in the test on 786-0 renal, in the test with T-47D breast and with U251 CNS was over 100 µM each time. Moreover, the TGI in the test with CAKI-1 renal, in the test with KM12 colon, in the test on SNB-75 CNS and with ACHN renal was over 100 µM in each case.

Regarding `COc1ccc(-c2cn(-c3cc(OC)c(OC)c(OC)c3)c(SCc3ccccc3)n2)cc1OC`, the GI50 in the test on SR leukemia is 97.8 µM; with HL-60(TB) leukemia it was over 100 µM; in the test with EKVX NSCLC, over 100 µM; in the test on 786-0 renal, over 100 µM; in the test with T-47D breast, 41.5 µM; with U251 CNS, over 100 µM. The GI50 was over 100 µM in the test with CAKI-1 renal, over 100 µM with KM12 colon, 82.3 µM with SNB-75 CNS and over 100 µM with ACHN renal. In addition, the TGI in the test with SR leukemia, with HL-60(TB) leukemia, with EKVX NSCLC, in the test on 786-0 renal, with T-47D breast and in the test with U251 CNS was over 100 µM in each case. Further, the TGI in the test with CAKI-1 renal, in the test on KM12 colon, in the test with SNB-75 CNS and in the test with ACHN renal was over 100 µM throughout.

For `COc1cc2ccc(/C=C\[N+](=O)[O-])cc2cc1OC`, the TGI is 5.28 µM in the test on SR leukemia; 5.07 µM in the test on HL-60(TB) leukemia; 15.5 µM with EKVX NSCLC; 3.09 µM with 786-0 renal; 12.5 µM with T-47D breast; 9.87 µM in the test with U251 CNS. Also, the TGI in the test with CAKI-1 renal was determined as 20 µM; with KM12 colon, 19.3 µM; in the test with SNB-75 CNS, 5.76 µM; with ACHN renal, 3.2 µM.

As to `CN(C)CCN1C(=O)c2ccccc2N(C)c2ccccc21`, the GI50 in the test with SR leukemia, with HL-60(TB) leukemia, in the test on EKVX NSCLC, in the test on 786-0 renal, in the test with T-47D breast and with U251 CNS was over 100 µM each time. Further, the GI50 in the test with CAKI-1 renal, in the test on KM12 colon, in the test with SNB-75 CNS and in the test with ACHN renal was over 100 µM each time. In addition, the TGI in the test on SR leukemia, in the test with HL-60(TB) leukemia, in the test on EKVX NSCLC, with 786-0 renal, with T-47D breast and in the test on U251 CNS was over 100 µM each time. Moreover, the TGI in the test on CAKI-1 renal, in the test with KM12 colon, in the test on SNB-75 CNS and with ACHN renal was over 100 µM throughout.

Turning to `COc1cc(OC(=O)c2ccccc2)cc2c1C(=O)C=CC2=O`, the TGI with SR leukemia is 5.03 µM; with HL-60(TB) leukemia it was 3.04 µM; with EKVX NSCLC, 30.2 µM; in the test with 786-0 renal it was 18.9 µM; in the test with T-47D breast, 4.73 µM; in the test on U251 CNS it was 38.2 µM. Also, the TGI stood at 37 µM in the test with CAKI-1 renal, 38.8 µM in the test with KM12 colon, 49.2 µM in the test on SNB-75 CNS and 26.4 µM with ACHN renal.

`COc1ccc(C(=O)c2cc(OC)c(OC)c(OC)c2)cc1OC(=O)CCl`: the GI50 in the test with SR leukemia is under 0.01 µM; in the test on HL-60(TB) leukemia, under 0.0152 µM; in the test on EKVX NSCLC, 0.832 µM; with 786-0 renal, 0.554 µM; with T-47D breast, 3.03 µM; with U251 CNS, 0.0422 µM. Moreover, the GI50 in the test on CAKI-1 renal is 0.151 µM; in the test with KM12 colon it was under 0.0143 µM; with SNB-75 CNS it was 0.0257 µM; with ACHN renal, under 0.0267 µM. In addition, the TGI in the test with SR leukemia is over 100 µM; in the test with HL-60(TB) leukemia, under 0.025 µM; with EKVX NSCLC, over 100 µM; with 786-0 renal it was over 100 µM; in the test on T-47D breast, 97.3 µM; in the test on U251 CNS, over 100 µM. Moreover, the TGI was over 100 µM in the test with CAKI-1 renal, over 100 µM in the test with KM12 colon, over 100 µM with SNB-75 CNS and 98.7 µM with ACHN renal.

The values are drawn from PubChem BioAssay (NCI).
